Experimental data taken from DBAASP.
Converted amounts (≈) assume the structure as drawn. Values belong to the compound of their own block, whether it stands above or below them.

Columns and labels:
Experiment in all cases: ≥ marks a high value that may be exact or a test limit, other limits are often not marked, values filed in µg/mL are converted to µM
[1] = test system: Staphylococcus epidermidis ATCC 1435
[2] = test system: Pseudomonas aeruginosa ATCC BAA-427
[3] = test system: Pseudomonas aeruginosa ATCC 10662
[4] = test system: Acinetobacter baumannii
[5] = test system: Bacillus subtilis ATCC 6633
[6] = test system: Klebsiella pneumoniae ATCC 27736
[7] = test system: Staphylococcus aureus
[8] = test system: Candida tropicalis
[9] = test system: Staphylococcus aureus ATCC 25923
[10] = test system: Candida albicans
[11] = test system: Candida glabrata
[12] = test system: Micrococcus luteus CCM 144
[13] = test system: Escherichia coli B
[14] = test system: Bacillus subtilis 168
[15] = test system: Candida albicans F7-39/IDE99
[16] = test system: Pseudomonas aeruginosa ATCC 27853
[17] = test system: Pseudomonas aeruginosa
[18] = test system: Staphylococcus aureus ATCC 43300
[19] = test system: Staphylococcus epidermidis
[20] = test system: Staphylococcus aureus 1
[21] = test system: Escherichia coli O111
[22] = test system: Staphylococcus aureus FDA 209P
[23] = test system: Escherichia coli ATCC 25922
[24] = test system: Streptococcus sanguinis ATCC 10556
[25] = test system: Streptococcus mutans UA159
[26] = test system: Streptococcus sobrinus ATCC 6715
[27] = test system: Lactococcus lactis AS1.1690
[28] = test system: Staphylococcus aureus AS1.72
[29] = test system: Enterococcus faecium CGMCC 1.2334
[30] = test system: Bacillus cereus AS1.126
[31] = test system: Escherichia coli AS1.349
[32] = test system: Pseudomonas aeruginosa CGMCC 1.860
[33] = test system: Enterococcus faecalis CGMCC 1.595
[34] = test system: Cronobacter sakazakii DPC 6440
[35] = test system: Listeria monocytogenes LO28

MIC [8]: 2.47 µM (≈ 6.25 µg/mL)
MIC [1]: 0.616 µM (≈ 1.56 µg/mL)
MIC [9]: 1.23 µM (≈ 3.12 µg/mL)
MIC [3]: 19.7 µM (≈ 50 µg/mL)
MIC [4]: 2.47 µM (≈ 6.25 µg/mL)
MIC [10]: 2.47 µM (≈ 6.25 µg/mL)
MIC [11]: ≥ 39.5 µM
MIC [7]: 1.23 µM (≈ 3.12 µg/mL)
Structure (SMILES): CC(C)C[C@H](NC(=O)[C@H](CC(N)=O)NC(=O)[C@H](CCCN=C(N)N)NC(=O)[C@H](Cc1ccccc1)NC(=O)[C@@H](N)Cc1ccccc1)C(=O)N[C@@H](Cc1c[nH]c2ccccc12)C(=O)N[C@@H](CCCCN)C(=O)NCC(=O)N[C@@H](C)C(=O)N[C@@H](CCCCN)C(=O)N[C@@H](C)C(=O)N[C@@H](C)C(=O)N[C@@H](Cc1ccccc1)C(=O)N[C@@H](CCCN=C(N)N)C(=O)N[C@@H](C)C(=O)NCC(=O)N[C@@H](Cc1cnc[nH]1)C(=O)N[C@@H](C)C(=O)N[C@@H](C)C(=O)N[C@@H](Cc1c[nH]c2ccccc12)C(=O)N[C@@H](CCCN=C(N)N)C(=O)N[C@@H](C)C(=O)O [FFRNLWKGAKAAFRAGHAAWRA]

MIC [24]: ≥ 315 µM
MIC [25]: ≥ 315 µM
MIC [26]: ≥ 315 µM
Structure (SMILES): CC(C)[C@H](NC(=O)[C@H](CCCCN)NC(=O)[C@H](C)NC(=O)[C@H](C)NC(=O)[C@H](CCCCN)NC(=O)[C@H](CCCCN)NC(=O)[C@H](Cc1ccccc1)NC(=O)[C@H](Cc1ccccc1)NC(=O)[C@H](CCCCN)NC(=O)[C@H](CCCCN)NC(=O)[C@H](Cc1c[nH]c2ccccc12)NC(=O)CN)C(=O)NCC(=O)N[C@@H](CCCCN)C(=O)O [GWKKFFKKAAKVGK]

MIC [27]: ≥ 100 µM
MIC [28]: ≥ 100 µM
MIC [29]: ≥ 100 µM
MIC [30]: ≥ 100 µM
MIC [31]: ≥ 100 µM
MIC [32]: ≥ 100 µM
MIC [33]: ≥ 100 µM
Structure (SMILES): NC(N)=NCCC[C@H](NC(=O)[C@H](Cc1cnc[nH]1)NC(=O)[C@H](Cc1c[nH]c2ccccc12)NC(=O)[C@H](Cc1ccccc1)NC(=O)[C@H](CCCN=C(N)N)NC(=O)[C@@H](N)CCCN=C(N)N)C(=O)O [RRFWHR]

MIC [24]: 18.9 µM (≈ 32 µg/mL)
MIC [25]: 18.9 µM (≈ 32 µg/mL)
MIC [26]: 18.9 µM (≈ 32 µg/mL)
Structure (SMILES): NCCCC[C@H](NC(=O)CNC(=O)[C@H](Cc1ccccc1)NC(=O)[C@H](CCCCN)NC(=O)[C@H](Cc1ccccc1)NC(=O)[C@H](Cc1ccccc1)NC(=O)[C@H](CCCCN)NC(=O)[C@H](CCCCN)NC(=O)[C@H](Cc1ccccc1)NC(=O)[C@H](Cc1ccccc1)NC(=O)[C@H](CCCCN)NC(=O)CNC(=O)[C@@H](N)Cc1c[nH]c2ccccc12)C(=O)O [WGKFFKKFFKFGK]

MIC [34]: ≥ 78.1 µM
MIC [35]: 19.5 µM (≈ 36.4 µg/mL)
Structure (SMILES): CC[C@H](C)[C@H](NC(=O)[C@@H](N)Cc1c[nH]c2ccccc12)C(=O)N[C@@H](CCC(N)=O)C(=O)N1CCC[C@H]1C(=O)N[C@@H](CCCCN)C(=O)N[C@H](C(=O)N[C@@H](CCCCN)C(=O)N[C@H](C(=O)N[C@@H](C)C(=O)N1CCC[C@H]1C(=O)N[C@@H](Cc1ccc(O)cc1)C(=O)N[C@H](C(=O)N[C@@H](CCCN=C(N)N)C(=O)N[C@@H](Cc1ccc(O)cc1)C(=O)N[C@@H](CC(C)C)C(=O)O)C(C)C)C(C)C)[C@@H](C)O [WIQPKTKVAPYVRYL]

More lines, now with the values behind:

Structure (SMILES): CC[C@H](C)[C@H](NC(=O)[C@H](Cc1cnc[nH]1)NC(=O)[C@H](Cc1cnc[nH]1)NC(=O)[C@H](Cc1ccccc1)NC(=O)[C@@H](N)Cc1ccccc1)C(=O)N[C@@H](Cc1ccccc1)C(=O)N[C@@H](CCCN=C(N)N)C(=O)NCC(=O)N[C@@H](C)C(=O)N[C@H](C(=O)N[C@@H](Cc1cnc[nH]1)C(=O)N[C@H](C(=O)NCC(=O)N[C@@H](CCCCN)C(=O)N[C@H](C(=O)N[C@H](C(=O)N[C@@H](Cc1cnc[nH]1)C(=O)N[C@@H](CCCN=C(N)N)C(=O)N[C@@H](CC(C)C)C(=O)N[C@H](C(=O)N[C@H](C(=O)NCC(N)=O)[C@@H](C)O)C(C)C)[C@@H](C)CC)[C@@H](C)O)C(C)C)C(C)C [FFHHIFRGAVHVGKTIHRLVTG]
MIC [1]: 0.593 µM (≈ 1.5 µg/mL)
MIC [2]: 10 µM (≈ 25.3 µg/mL)
MIC [3]: 9.88 µM (≈ 25 µg/mL)
MIC [4]: 1.23 µM (≈ 3.1 µg/mL)
MIC [5]: 8 µM (≈ 20.2 µg/mL)
MIC [6]: 6 µM (≈ 15.2 µg/mL)
MIC [7]: 1.23 µM (≈ 3.1 µg/mL)

Structure (SMILES): CC[C@H](C)[C@H](NC(=O)CN)C(=O)N[C@@H](CCSC)C(=O)N[C@@H](CO)C(=O)N[C@@H](CO)C(=O)N[C@@H](CC(C)C)C(=O)N[C@@H](CCSC)C(=O)N[C@@H](CCCCN)C(=O)N[C@@H](CCCCN)C(=O)N[C@@H](CC(C)C)C(=O)N[C@@H](C)C(=O)N[C@@H](CCCCN)C(=O)N[C@H](C(=O)N[C@H](C(=O)N[C@@H](C)C(=O)N[C@@H](CCCCN)C(N)=O)[C@@H](C)CC)[C@@H](C)CC [GIMSSLMKKLAKIIAK]
MIC [12]: 3 µM (≈ 5.19 µg/mL)
MIC [13]: 3.7 µM (≈ 6.41 µg/mL)
MIC [14]: 7 µM (≈ 12.1 µg/mL)
MIC [15]: 11 µM (≈ 19 µg/mL)
MIC [16]: 4.5 µM (≈ 7.79 µg/mL)
MIC [17]: 9.3 µM (≈ 16.1 µg/mL)
MIC [18]: 9 µM (≈ 15.6 µg/mL)
MIC [19]: 5 µM (≈ 8.66 µg/mL)
MIC [20]: 5.2 µM (≈ 9 µg/mL)
MIC [7]: 10 µM (≈ 17.3 µg/mL)

Structure (SMILES): CC[C@H](C)[C@H](NC(=O)[C@@H](NC(=O)CN)C(C)C)C(=O)N[C@H](C(=O)N[C@@H](CC(=O)O)C(=O)N[C@@H](C)C(=O)N[C@@H](CC(C)C)C(=O)N[C@@H](CCCCN)C(=O)NCC(=O)N[C@@H](C)C(=O)N[C@@H](C)C(=O)N[C@@H](CCCCN)C(=O)N[C@H](C(=O)N[C@H](C(=O)N[C@@H](C)C(=O)N[C@@H](C)C(=O)N[C@@H](CCC(=O)O)C(=O)N[C@@H](CC(C)C)C(=O)N[C@@H](CC(C)C)C(=O)N[C@@H](CCCN=C(N)N)C(=O)N[C@@H](CCCCN)C(=O)N[C@@H](C)C(=O)N[C@@H](Cc1cnc[nH]1)C(=O)N[C@H]1CSSC[C@@H](C(=O)O)NC(=O)[C@H](CO)NC(=O)[C@H](CC(N)=O)NC(=O)[C@H]([C@@H](C)O)NC(=O)[C@H](CC(C)C)NC(=O)[C@H](CCCCN)NC1=O)C(C)C)[C@@H](C)O)[C@@H](C)O [GVITDALKGAAKTVAAELLRKAHCKLTNSC]
MIC [21]: 2.66 µM (≈ 8.19 µg/mL)
MIC [5]: 20.8 µM (≈ 64 µg/mL)
MIC [22]: 5.35 µM (≈ 16.5 µg/mL)
MIC [23]: 2.66 µM (≈ 8.19 µg/mL)

Structure (SMILES): CC[C@H](C)[C@H](NC(=O)[C@@H](N)Cc1c[nH]c2ccccc12)C(=O)N[C@@H](CCC(N)=O)C(=O)N1CCC[C@H]1C(=O)N[C@@H](CCCCN)C(=O)N[C@H](C(=O)N[C@@H](CCCCN)C(=O)N[C@H](C(=O)N[C@H](C(=O)N1CCC[C@H]1C(=O)N[C@@H](C)C(=O)N[C@H](C(=O)N[C@@H](CCCN=C(N)N)C(=O)N[C@@H](Cc1ccc(O)cc1)C(=O)N[C@@H](CC(C)C)C(=O)O)C(C)C)[C@@H](C)CC)C(C)C)[C@@H](C)O [WIQPKTKVIPAVRYL]
MIC [34]: ≥ 78.1 µM
MIC [35]: ≥ 39.1 µM
